In patent US20130216553A1, “Compositions and Methods for Modulation and Detection of Immune and Inflammatory Responses” (priority 2010, published 2013):
* marks the point of attachment. Palmitoyl = CCCCCCCCCCCCCCCC(=O)*

How the values were obtained:
[1] = test system: Bone marrow-derived DCs from TLR2^−/− mice; assay: Stimulation of bone marrow dendritic cells from TLR2^−/− mice (IL-6 ELISA, surface activation markers); format: cell-based, mouse; conditions: TLR2^−/− BMDCs, plate-bound LPS (1 μg), MMP (10 μg) or PE DHC (2.5 μg), supernatants after 18 hrs
Protocol: (§1) Bone marrow cells from C57BL/6 and TLR2^−/− mice were cultured at 2×10^5 cells/ml in RPMI containing 10% FCS, 2-ME, and 20 ng/ml recombinant murine GM-CSF for 9 days. Bone marrow DCs (BMDCs) were harvested at Day 9 and were greater than 80% CD11c+. LPS (1 μg), MMP (10 μg) (a bacterial lipoprotein and known TLR-2 ligand: Palmitoyl-Cys ((RS)-2,3-di(palmitoyloxy)-propyl)-Ser-Ser-Asn-Ala-OH(pam3-Cys-Ser-Ser Asn-Ala-OH) (Bachem H-9460), PE DHC (2.5 μg) or 70% EtOH, all in 20 ul volumes, were allowed to dry in the wells of a 24-well plate overnight prior to the addition of BMDCs. BMDCs were cultured in the ligand-bound 24-well plates at 1×10^6 cells/ml in RPMI containing GM-CSF. After 18 hrs, culture supernatants were harvested and tested for IL-6 via ELISA.
(§2) The effects of PE DHC on antigen presenting cell (APC) activation in vitro were examined. Dendritic cells (BMDCs) (>85% CD11c+) were derived from the bone marrow of WT or TLR2^−/− mice and cultured either alone or with EtOH, LPS, MMP (a TLR2 ligand), or PE DHC. After 18 Ins supernatants were assayed for IL-6. […] BMDCs were also assayed for expression of the surface activation markers B7.2 and MHC class II.

[2] = test system: Bone marrow-derived DCs from wild-type (WT) mice; assay: Stimulation of bone marrow dendritic cells from wild-type mice (IL-6 ELISA, surface activation markers); format: cell-based, mouse; conditions: WT BMDCs, plate-bound LPS (1 μg), MMP (10 μg) or PE DHC (2.5 μg), supernatants after 18 hrs
Protocol: as §1, §2

Palmitoyl-Cys ((RS)-2,3-di(palmitoyloxy)-propyl)-Ser-Ser-Asn-Ala-OH ({Palmitoyl-Cys((RS)-2,3-di(palmitoyloxy)-propyl)}-SSNA-OH) [MMP, a bacterial lipoprotein and known TLR-2 ligand (Bachem H-9460)]
IL-6 secretion [1]: did not | IL-6 secretion [2]: resulted in IL-6 secretion
